Values of other authors, collected in patent US20070287755A1, “Orally administered compound for preventing neonatal hemorrhages, in a tardy form, caused by a K-vitamin dificiency” (priority 2006, published 2007).

Experiments:
[1] = only if a suitable amount of biliar salts is present; lymphatic ways, proximal small intestine
[2] = human person, after 72 hours
[3] = tested on: tardy hemorrhagic disease; conditions: repeated oral doses of 25 micrograms/day, breast-fed newborn babies

absorption through the gastrointestinal tract [1] | presence in blood [2] | Compound | prophylaxis of tardy hemorrhagic disease [3]
nearly fully absorbed |  | CC1=C(C/C=C(\C)CCC[C@H](C)CCC[C@H](C)CCCC(C)C)C(=O)c2ccccc2C1=O [Phytonadion] | 
 | practically absent in blood | K-vitamin | efficient for a full prophylaxis
